Laboratory results taken from ChEMBL document CHEMBL5518230, “Identification of a Novel Selective CDK9 Inhibitor for the Treatment of CRC: Design, Synthesis, and Biological Activity Evaluation” (J Med Chem, 2024).
Activity calls are given as the source filed them. The rule behind the calls is not given here.

How the values were obtained:
CDK9/cyclin T1 = CDK9/cyclin T1 (Homo sapiens, UniProt P50750); assay: Inhibition of CDK9/Cyclin T1 (unknown origin) using PDKtide substrate incubated for 60 mins by ADP-Glo kinase assay; assay type: protein-complex assay
HCT-116 [1] = assay: Growth inhibition of human HCT-116 cells incubated for 48 hrs by CCK-8 assay; assay type: functional
HT-29 = assay: Growth inhibition of human HT-29 cells incubated for 48 hrs by CCK-8 assay; assay type: functional
[2] = biological target: CDK9/cyclin T1 (Homo sapiens) (UniProt O60563+P50750); assay: Inhibition of CDK9/Cyclin T1 (unknown origin) using PDKtide substrate at 500 nM incubated for 60 mins by ADP-Glo kinase assay relative to control; assay type: protein-complex assay
Homo sapiens = species: Homo sapiens; assay: Inhibition of CDK1/Cyclin A2 (unknown origin) at 100 nM
[3] = biological target: CDK2/Cyclin A2 (Homo sapiens) (UniProt P24941+P20248); assay: Inhibition of CDK2/Cyclin A2 (unknown origin) at 100 nM; assay type: protein-complex assay
[4] = biological target: CDK1/Cyclin E (Homo sapiens) (UniProt P06493+P24864); assay: Inhibition of CDK1/Cyclin E1 (unknown origin) at 100 nM; assay type: protein-complex assay
[5] = biological target: Cyclin-dependent kinase 2/cyclin E1 (Homo sapiens) (UniProt P24864+P24941); assay: Inhibition of CDK2/Cyclin E1 (unknown origin) at 100 nM; assay type: protein-complex assay
HCT-116 [6] = assay: Inhibition of colony formation in human HCT-116 cells assessed as reduction in colony number incubated for 14 days by crystal violet staining assay; assay type: functional, cell-based; conditions: time 14.0 day
HCT-116 [7] = assay: Antitumor activity against human HCT-116 cells xenografted in BALB/c mouse assessed as tumor growth inhibition at 50 mg/kg,po administrated once daily for 3 weeks; assay type: functional, organism-based

Chain of CDK9/cyclin T1 (O60563 whole entry): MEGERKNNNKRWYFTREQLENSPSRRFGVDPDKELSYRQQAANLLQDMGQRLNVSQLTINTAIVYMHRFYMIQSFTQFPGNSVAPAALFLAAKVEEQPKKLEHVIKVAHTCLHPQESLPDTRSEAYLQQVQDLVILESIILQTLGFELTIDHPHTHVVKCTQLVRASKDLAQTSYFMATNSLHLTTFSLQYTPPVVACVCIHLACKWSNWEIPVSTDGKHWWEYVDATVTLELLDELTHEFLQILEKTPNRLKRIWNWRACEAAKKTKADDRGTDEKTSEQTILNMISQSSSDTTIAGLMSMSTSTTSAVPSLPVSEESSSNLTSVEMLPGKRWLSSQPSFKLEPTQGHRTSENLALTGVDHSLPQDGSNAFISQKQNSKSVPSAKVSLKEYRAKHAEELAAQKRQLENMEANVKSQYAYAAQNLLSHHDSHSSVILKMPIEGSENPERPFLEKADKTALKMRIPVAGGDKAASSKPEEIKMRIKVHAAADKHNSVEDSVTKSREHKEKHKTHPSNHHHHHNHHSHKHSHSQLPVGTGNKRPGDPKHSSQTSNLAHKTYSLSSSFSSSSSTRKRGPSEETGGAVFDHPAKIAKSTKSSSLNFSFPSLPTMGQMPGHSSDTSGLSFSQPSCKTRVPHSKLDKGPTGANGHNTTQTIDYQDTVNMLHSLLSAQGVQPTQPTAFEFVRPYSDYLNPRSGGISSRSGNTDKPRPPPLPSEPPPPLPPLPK
Chain of CDK9/cyclin T1 (P50750 whole entry): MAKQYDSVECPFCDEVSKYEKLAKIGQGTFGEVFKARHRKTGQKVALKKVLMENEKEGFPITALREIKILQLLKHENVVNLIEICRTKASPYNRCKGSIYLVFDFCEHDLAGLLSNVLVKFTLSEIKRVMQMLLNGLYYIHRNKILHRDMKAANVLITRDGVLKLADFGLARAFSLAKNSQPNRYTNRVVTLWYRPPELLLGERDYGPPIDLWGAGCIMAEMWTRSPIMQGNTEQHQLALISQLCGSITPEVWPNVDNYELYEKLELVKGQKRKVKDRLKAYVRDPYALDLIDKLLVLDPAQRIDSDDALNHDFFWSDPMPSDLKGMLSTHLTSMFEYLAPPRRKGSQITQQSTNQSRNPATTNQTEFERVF
Chain of CDK1/Cyclin E (Homo sapiens) (P06493 whole entry, looked up): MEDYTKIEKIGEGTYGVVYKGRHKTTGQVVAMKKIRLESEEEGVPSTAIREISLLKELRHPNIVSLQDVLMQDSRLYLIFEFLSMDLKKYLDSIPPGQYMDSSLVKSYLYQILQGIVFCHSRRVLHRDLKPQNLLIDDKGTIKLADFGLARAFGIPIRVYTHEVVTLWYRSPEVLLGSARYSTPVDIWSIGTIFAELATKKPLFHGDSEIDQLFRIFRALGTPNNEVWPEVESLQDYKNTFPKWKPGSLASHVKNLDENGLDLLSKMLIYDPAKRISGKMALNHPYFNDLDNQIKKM
Chain of CDK1/Cyclin E (Homo sapiens) (P24864 whole entry, looked up): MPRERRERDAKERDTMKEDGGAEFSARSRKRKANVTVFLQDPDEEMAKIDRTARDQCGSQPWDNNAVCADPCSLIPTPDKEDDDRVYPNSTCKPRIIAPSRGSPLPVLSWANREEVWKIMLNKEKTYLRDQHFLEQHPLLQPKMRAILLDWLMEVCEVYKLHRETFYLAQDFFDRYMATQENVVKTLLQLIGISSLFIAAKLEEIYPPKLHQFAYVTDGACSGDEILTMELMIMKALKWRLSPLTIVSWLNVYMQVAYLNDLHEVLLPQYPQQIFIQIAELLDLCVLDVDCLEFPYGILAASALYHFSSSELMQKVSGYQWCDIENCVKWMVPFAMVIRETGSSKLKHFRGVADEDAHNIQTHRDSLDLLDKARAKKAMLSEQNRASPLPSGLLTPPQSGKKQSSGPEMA

SMILES	IC50 (CDK9/cyclin T1) [nM]	GI50 (HCT-116 [1]) [nM]	GI50 (HT-29) [nM]	inhibition [2] [%]	other results
CC(C)n1nnc2ccc(-c3ccnc(Nc4cc(C(=O)N5CCOCC5)ccn4)c3)cc21	3.06	70	650		
COc1cc(C(=O)N2CCOCC2)ccc1Nc1cc(-c2ccc3nnn(C4CCCC4)c3c2)ccn1				23.5	
CC(C)n1nnc2ccc(-c3ccnc(Nc4ccc(C(=O)N5CCOCC5)cc4F)c3)cc21				65.3	
CC(C)n1nnc2ccc(-c3ccnc(Nc4ccc(C(=O)N5CCCC5)cn4)c3)cc21	6.62	310	350		
CC(C)(C)n1nnc2ccc(-c3ccnc(Nc4ccc(C(=O)N5CCOCC5)cc4)c3)cc21				73.5	
COc1cc(C(=O)N2CCOCC2)ccc1Nc1cc(-c2ccc3nnn(C(C)C)c3c2)ccn1				41.7	
O=C(c1ccc(Nc2cc(-c3ccc4nnn(C5CCCC5)c4c3)ccn2)nc1)N1CCOCC1	9.92			99.7	
CC(C)n1nnc2ccc(-c3ccnc(Nc4ccc(C(=O)N5CCN(C)CC5)cn4)c3)cc21	4.39	250	230		
CCN1CCN(C(=O)c2ccc(Nc3cc(-c4ccc5nnn(C(C)C)c5c4)ccn3)nc2)CC1	3.8	60	50		inhibition (Homo sapiens): Active; inhibition [3]: Active; inhibition [4]: Active; inhibition [5]: Active
O=C(c1ccc(Nc2cc(-c3ccc4nnn(C5CCCCC5)c4c3)ccn2)c(C(F)(F)F)c1)N1CCOCC1				0.49	
CC(C)N1CCN(C(=O)c2ccc(Nc3cc(-c4ccc5nnn(C(C)C)c5c4)ccn3)nc2)CC1	4.08	330	80		
Cc1ncc(-c2ccnc(Nc3ccc(S(C)(=O)=O)cc3)n2)n1C(C)C [AZD-5438]		450	960		inhibition (HCT-116 [6]): Dose-Dependent Effect; Activity (HCT-116 [7]): Active
CC(C)(C)n1nnc2ccc(-c3ccnc(Nc4ccc(C(=O)N5CCOCC5)cc4F)c3)cc21				50.3	
CC(C)n1nnc2ccc(-c3ccnc(Nc4ccc(C(=O)N5CCCN(C)CC5)cn4)c3)cc21	3.05	280	> 2000		
O=C(c1ccc(Nc2cc(-c3ccc4nnn(C5CCCC5)c4c3)ccn2)cc1)N1CCOCC1				81.2	
CC(C)n1nnc2ccc(-c3ccnc(Nc4ccc(C(=O)N5CCOCC5)cc4C(F)(F)F)c3)cc21				11.4	
